Assay results taken from patent publication US10730887B2, “Compound containing tricyclic heteroaryl group” (Hangzhou Innogate Pharma Co., Ltd., priority 2016, dated 2020).

Tests used:
[1] = target: SYK (Homo sapiens, UniProt P43405); assay: Syk kinase activity inhibition, Caliper mobility shift assay; type: biochemical
Method: SYK protein kinase activity was determined using the Caliper mobility shift assay. The compound was dissolved in DMSO and diluted with kinase buffer (20 mM HEPES, 0.01% Triton X-100, 5 mM MgCl2, 1 mM MnCl2, 2 mM DTT), and 5 μL of 5 times final concentration was added to the 384-well plate Compound (10% DMSO). After adding 10 μL of 2.5-fold enzyme (with SYK) solution, incubate for 10 minutes at room temperature, and then add 10 μL of 2.5-fold substrate (Peptide FAM-P22 and ATP) solution. Incubate at 28° C. for 30 minutes, then stop the reaction by adding 25 μL of stop solution (100 mM HEPES, 0.015% Brij-35, 0.2% Coating Reagent #13, 50 mM EDTA, pH 7.5). Conversion rate data was read on a Caliper EZ Reader II (Caliper Life Sciences) The conversion rate was converted into inhibition rate data (% inhibition rate=(max−conversion rate)/(max−min)*100). Where max is the conversion of the DMSO control and min is the conversion of the enzyme-free control. Curves were plotted with compound concentration and inhibition rate on the horizontal and vertical coordinates, and the curve was fitted using XLFit excel add-in version 4.3.1 software and IC50 was calculated.

[2] = target: Jak2 (Homo sapiens, UniProt O60674); assay: Jak2 kinase activity inhibition, Caliper Reader; type: biochemical
Sequence of Jak2 (O60674 whole entry, species assumed): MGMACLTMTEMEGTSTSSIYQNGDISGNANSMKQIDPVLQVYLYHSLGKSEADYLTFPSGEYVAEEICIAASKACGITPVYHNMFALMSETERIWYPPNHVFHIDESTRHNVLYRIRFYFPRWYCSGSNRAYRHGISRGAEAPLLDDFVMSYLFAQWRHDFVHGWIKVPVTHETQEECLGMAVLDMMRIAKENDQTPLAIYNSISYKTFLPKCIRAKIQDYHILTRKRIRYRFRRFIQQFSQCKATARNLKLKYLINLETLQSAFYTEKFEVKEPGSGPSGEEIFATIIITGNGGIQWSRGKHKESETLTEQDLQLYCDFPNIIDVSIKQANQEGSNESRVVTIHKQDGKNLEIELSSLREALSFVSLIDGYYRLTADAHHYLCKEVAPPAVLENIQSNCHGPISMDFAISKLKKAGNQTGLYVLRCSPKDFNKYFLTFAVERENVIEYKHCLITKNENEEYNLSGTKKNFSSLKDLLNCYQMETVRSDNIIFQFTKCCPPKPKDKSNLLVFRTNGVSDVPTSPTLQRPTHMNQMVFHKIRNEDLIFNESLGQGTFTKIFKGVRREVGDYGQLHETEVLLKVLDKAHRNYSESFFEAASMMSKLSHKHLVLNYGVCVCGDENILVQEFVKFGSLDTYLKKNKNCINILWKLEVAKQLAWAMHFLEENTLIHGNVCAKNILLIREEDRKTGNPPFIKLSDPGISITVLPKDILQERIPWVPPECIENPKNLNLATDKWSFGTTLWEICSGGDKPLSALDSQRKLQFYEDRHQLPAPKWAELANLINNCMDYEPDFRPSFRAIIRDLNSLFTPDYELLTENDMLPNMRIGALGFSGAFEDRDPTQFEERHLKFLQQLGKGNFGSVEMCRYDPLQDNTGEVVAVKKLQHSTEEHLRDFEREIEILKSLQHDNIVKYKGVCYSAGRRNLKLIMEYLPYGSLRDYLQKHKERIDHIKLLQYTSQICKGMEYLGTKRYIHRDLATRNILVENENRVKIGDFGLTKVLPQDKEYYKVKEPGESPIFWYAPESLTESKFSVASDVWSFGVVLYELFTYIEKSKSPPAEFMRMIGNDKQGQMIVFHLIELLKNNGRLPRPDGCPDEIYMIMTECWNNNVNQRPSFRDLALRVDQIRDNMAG
Method: (§1) Kinase JAk1 and Jak2 enzyme inhibition IC50 evaluation experiments: The buffer was configured with the following components: 50 mM HEPES, pH 7.5, 0.00015% Brij-35. Compounds were placed in a concentration gradient in 100% DMSO and diluted to 10% DMSO with buffer and added to 384 well plates. For example, when the initial concentration of the compound is […], it is made into 12.5 μM with 100% DMSO, and diluted by 5 or 6 concentrations, and then diluted 10-fold with buffer to prepare an intermediate dilution of the compound containing 10% DMSO. Transfer 5 μL, to 384-well plate. The Jak1 and Jak2 enzymes were diluted to the optimal concentration with the following buffer: 50 mM HEPES, pH 7.5, 0.00015% Brij-35, 2 mM DTT. Transfer 10 μL to a 384-well plate and incubate with the compound for 10-15 minutes. The substrate was diluted to the optimal concentration with the following buffer: 50 mM HEPES, pH 7.5, 0.00015% Brij-35, 10 mM MgCl2, adenosine triphosphate at Km. The reaction was initiated by adding 10 μL to a 384-well plate and reacted at 28° C. for 1 hour. The conversion rate was then read using a Caliper Reader and the inhibition rate was calculated. The formula is as follows: Percent inhibition=(max−conversion)/(max−min)*100. Where max is the conversion of the DMSO control and min is the conversion of the enzyme-free control. Fit the IC50 value with XLFit excel add-in version 5.4.0.8. Fitting formula: Y=Bottom+(Top−Bottom)/(1+(IC50/X)^HillSlope).

[3] = target: Jak1 (Homo sapiens, UniProt P23458); assay: Jak1 kinase activity inhibition, Caliper Reader; type: biochemical
Sequence of Jak1 (P23458 whole entry, species assumed): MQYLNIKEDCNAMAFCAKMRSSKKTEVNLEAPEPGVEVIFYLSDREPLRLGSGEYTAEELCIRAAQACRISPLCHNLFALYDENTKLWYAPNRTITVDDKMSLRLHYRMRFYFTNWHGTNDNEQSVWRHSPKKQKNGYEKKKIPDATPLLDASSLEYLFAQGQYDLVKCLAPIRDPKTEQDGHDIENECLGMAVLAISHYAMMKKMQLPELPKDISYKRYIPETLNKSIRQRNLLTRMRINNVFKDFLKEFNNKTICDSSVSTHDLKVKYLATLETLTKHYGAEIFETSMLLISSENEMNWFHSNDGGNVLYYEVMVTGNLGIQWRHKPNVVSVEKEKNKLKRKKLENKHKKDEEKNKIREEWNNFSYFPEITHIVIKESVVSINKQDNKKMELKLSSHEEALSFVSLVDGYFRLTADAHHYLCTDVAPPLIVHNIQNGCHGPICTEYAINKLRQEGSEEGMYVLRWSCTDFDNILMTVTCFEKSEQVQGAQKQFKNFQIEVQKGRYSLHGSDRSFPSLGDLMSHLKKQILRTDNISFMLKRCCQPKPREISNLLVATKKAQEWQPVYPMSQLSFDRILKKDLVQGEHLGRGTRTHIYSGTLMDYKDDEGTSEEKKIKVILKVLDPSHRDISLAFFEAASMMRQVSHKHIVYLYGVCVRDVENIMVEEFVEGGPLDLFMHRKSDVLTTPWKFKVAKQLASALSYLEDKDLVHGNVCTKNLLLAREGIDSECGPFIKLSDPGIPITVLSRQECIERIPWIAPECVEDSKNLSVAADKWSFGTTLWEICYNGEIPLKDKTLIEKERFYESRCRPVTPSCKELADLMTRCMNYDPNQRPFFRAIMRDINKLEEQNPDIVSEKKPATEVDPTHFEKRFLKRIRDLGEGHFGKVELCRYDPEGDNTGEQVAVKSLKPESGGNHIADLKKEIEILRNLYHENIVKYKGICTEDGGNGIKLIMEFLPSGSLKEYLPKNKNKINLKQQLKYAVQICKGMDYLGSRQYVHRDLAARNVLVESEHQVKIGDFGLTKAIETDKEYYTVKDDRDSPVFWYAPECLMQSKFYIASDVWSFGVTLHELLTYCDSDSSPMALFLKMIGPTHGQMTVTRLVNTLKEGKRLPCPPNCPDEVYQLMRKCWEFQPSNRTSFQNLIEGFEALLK
Method: as §1

[4] = Pharmacokinetic study in mice, intragastric administration; type: in vivo; conditions: mouse, male ICR mice, PO dose 5 mg/kg, plasma
Method: Instrument: API4000+LC/MS instrument manufactured by AB Sciex. All measurement data was collected and processed by Analyst 1.6.3 software, and data was calculated and processed by Microsoft Excel. Using the DAS 3.2.8 software, the statistical moment method was used to calculate the pharmacokinetic parameters. t mainly includes kinetic parameters Tmax, T½, Cmax, AUC(0-t) and the like Column: ACQUITY UPLC BEH C18 (2.1 mm×50 mm, 1.7 μm), column temperature 40° C.; mobile phase A is water (0.1% formic acid+5 mM ammonium acetate), mobile phase B is acetonitrile (0.1% acetic acid). The flow rate was 0.30 ml/min and the isocratic elution of 90% B was maintained for 1.5 minutes. Injection volume: 5 μL.
Animals: 12 male ICR mice, weighing 22-26 g, were used after 2 days of feeding in the laboratory of the experimental animal center. They were fasted 12 hours before the administration and 4 hours after the administration, and were free to drink during the test. Mice were randomly divided into four groups of 3 animals each. After intragastric administration, blood samples were taken at two different time points in each group.
Solvent: 0.5% Methylcellulose (aqueous solution containing 0.4% Tween 80). Formulation of intragastric administration solution. The compound is accurately weighed, added to the solvent, and sonicated at room temperature for 5 minutes to completely dissolve the drug to prepare a drug solution of 0.33 mg/ml.
Drug sample: A representative compound of the structure represented by the patent formula (I) of the present invention generally adopts a plurality of samples having similar structures (molecular weight difference of more than 2 units), accurately weighed, and administered together (cassette PK). This allows multiple compounds to be screened simultaneously and their oral absorption rates compared. Single drug administration was also used to study the pharmacokinetics of drug samples in mice.
Blood was taken from the eyelids at 0.25, 0.5, 1, 2, 4, 8, 12, and 24 hours after intragastric administration. In the heparin-treated tube, the supernatant was centrifuged for LC-MS/MS analysis.
Accurately weigh the compounds to different concentrations, perform quantitative analysis on the mass spectrometer to establish a standard curve, and then test the concentration of the compound in the above plasma to obtain the concentration of the compound at different time points. All the measured data were collected and processed by the relevant software, and the statistical moment method was used to calculate the pharmacokinetic parameters (mainly including the kinetic parameters Tmax, T1/2, Cmax, AUC(0-t), etc.).

[5] = target: T1, FLT3 (Homo sapiens, UniProt P36888); assay: FLT3 kinase activity inhibition, Caliper mobility shift assay; type: biochemical
T1 sequence (P36888 27-993): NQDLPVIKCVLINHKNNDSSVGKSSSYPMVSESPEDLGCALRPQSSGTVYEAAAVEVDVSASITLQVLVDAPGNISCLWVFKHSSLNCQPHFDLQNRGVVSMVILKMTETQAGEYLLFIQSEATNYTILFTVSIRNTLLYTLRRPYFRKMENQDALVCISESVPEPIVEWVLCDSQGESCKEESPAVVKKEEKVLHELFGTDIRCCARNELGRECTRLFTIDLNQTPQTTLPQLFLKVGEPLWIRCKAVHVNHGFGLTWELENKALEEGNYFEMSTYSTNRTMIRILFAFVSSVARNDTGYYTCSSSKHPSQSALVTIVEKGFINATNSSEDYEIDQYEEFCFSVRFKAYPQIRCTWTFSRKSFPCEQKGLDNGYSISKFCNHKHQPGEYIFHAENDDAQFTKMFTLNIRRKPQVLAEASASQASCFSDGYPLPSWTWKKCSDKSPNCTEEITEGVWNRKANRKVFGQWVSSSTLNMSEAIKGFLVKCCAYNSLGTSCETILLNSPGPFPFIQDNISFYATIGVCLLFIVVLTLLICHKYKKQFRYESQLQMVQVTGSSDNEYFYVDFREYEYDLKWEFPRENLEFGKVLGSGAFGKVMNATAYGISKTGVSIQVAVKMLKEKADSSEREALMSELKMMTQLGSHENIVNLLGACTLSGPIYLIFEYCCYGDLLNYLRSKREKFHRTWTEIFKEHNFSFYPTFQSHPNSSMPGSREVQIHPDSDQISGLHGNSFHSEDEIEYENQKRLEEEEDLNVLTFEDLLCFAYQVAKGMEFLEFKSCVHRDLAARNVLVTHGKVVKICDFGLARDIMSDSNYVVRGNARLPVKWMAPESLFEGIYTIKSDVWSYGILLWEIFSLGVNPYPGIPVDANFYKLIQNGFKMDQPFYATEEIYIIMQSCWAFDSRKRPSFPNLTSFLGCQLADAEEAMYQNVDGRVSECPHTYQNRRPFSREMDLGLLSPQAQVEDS
Method: FLT3 protein kinase activity was measured using the Caliper mobility shift assay. The compound was dissolved in DMSO and diluted with a kinase buffer (50 mM HEPES, pH 7.5, 0.0015% Brij-35, 2 mM DTT), and 5 μL of a 5-fold final concentration of the compound (10% DMSO) was added to a 384-well plate. After adding 10 μL of 2.5-fold FLT3 enzyme solution, incubate for 10 minutes at room temperature, and then add 10 μL of a 2.5-fold substrate (FAM-labeled polypeptide and ATP) solution. After incubation at 28° C. for 60 minutes, the reaction was stopped by adding 25 μL of stop solution (100 mM HEPES, 0.015% Brij-35, 0.2% Coating Reagent #3, 50 mM EDTA, pH 7.5). Conversion rate data was read on a Caliper EZ Reader II (Caliper Life Sciences). The conversion rate was converted into inhibition rate data (% inhibition rate=(max−conversion rate)/(max−min)*100). Where max is the conversion of the DMSO control and min is the conversion of the enzyme-free control Curves were plotted with compound concentration and inhibition rate on the horizontal and vertical coordinates, and the curve was fitted using XLFit excel add-in version 4.3.1 software and IC50 was calculated.

[6] = target: CDK4/CycD3 (Homo sapiens, UniProt P11802); assay: CDK4 kinase activity inhibition, Caliper mobility shift assay; type: biochemical
Sequence of CDK4/CycD3 (P11802 whole entry, species assumed): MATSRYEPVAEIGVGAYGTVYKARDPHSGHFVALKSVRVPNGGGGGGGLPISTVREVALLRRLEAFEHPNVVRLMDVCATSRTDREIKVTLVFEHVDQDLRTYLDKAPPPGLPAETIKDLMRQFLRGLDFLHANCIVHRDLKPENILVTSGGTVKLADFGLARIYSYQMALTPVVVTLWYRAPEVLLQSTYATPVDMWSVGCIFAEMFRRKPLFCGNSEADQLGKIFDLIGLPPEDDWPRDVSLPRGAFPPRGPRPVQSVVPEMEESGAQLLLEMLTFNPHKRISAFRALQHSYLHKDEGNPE
Sequence of CDK4/CycD3 (P30281 whole entry partner, species assumed): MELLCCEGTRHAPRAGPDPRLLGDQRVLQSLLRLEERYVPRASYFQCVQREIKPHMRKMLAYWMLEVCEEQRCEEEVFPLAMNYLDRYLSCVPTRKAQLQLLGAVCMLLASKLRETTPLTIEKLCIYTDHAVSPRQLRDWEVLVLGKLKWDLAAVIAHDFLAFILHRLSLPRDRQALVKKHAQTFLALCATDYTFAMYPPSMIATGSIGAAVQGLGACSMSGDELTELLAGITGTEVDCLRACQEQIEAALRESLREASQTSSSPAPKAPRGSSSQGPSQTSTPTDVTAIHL
Method: (§2) CDK2/CycA2, CDK4/CycD3 and CDK6/cycD3 protein kinase activities were determined using the Caliper mobility shift assay. The compound was dissolved in DMSO and diluted with kinase buffer (CDK2/CycA2 and CDK6/cycD3 with 50 mM HEPES (pH 7.5), 10 mM MgCl2, 0.0015% Brij-35, and 2 mM dithiothreitol; CDK4/CycD3 with 20 mM HEPES (pH 7.5), 10 mM MgCl2, 0.01% Triton X-100, and 2 mM dithiothreitol), 5 μl of a 5-fold final concentration of the compound (10% DMSO) was added to a 384-well plate. Add 10 μL of 2.5-fold […] enzyme solution and incubate for 10 minutes at room temperature, then add 10 μL of 2.5-fold substrate solution (corresponding enzyme and substrate concentration CDK2/CycA2 12 nM, ATP Kin 39 μM; CDK4/CycD3 10 nM, ATP Km 221 μM; CDK6/cycD3 15 nM, ATP Km […]) Incubate at 28° C. (60 min CDK2, 180 min CDK4, 60 min CDK6) followed by 25 μl stop solution (100 mM HEPES (pH 7.5), 0.015% Brij-35, 0.2% Coating Reagent #3, 50 mM EDTA) Stop the reaction. Conversion rate data was read on a Caliper EZ Reader 11 (Caliper Life Sciences). The conversion rate was converted into inhibition rate data (% inhibition rate=(max−conversion rate)/(max−min)*100) Where max is the conversion of the DMSO control and min is the conversion of the enzyme-free control. Curves were plotted with compound concentration and inhibition rate on the horizontal and vertical coordinates, and the curve was fitted using XLFit excel add-in version 4.3.1 software and IC50 was calculated.

[7] = target: CDK6/cycD3 (Homo sapiens, UniProt Q00534); assay: CDK6 kinase activity inhibition, Caliper mobility shift assay; type: biochemical
Sequence of CDK6/cycD3 (Q00534 whole entry, species assumed): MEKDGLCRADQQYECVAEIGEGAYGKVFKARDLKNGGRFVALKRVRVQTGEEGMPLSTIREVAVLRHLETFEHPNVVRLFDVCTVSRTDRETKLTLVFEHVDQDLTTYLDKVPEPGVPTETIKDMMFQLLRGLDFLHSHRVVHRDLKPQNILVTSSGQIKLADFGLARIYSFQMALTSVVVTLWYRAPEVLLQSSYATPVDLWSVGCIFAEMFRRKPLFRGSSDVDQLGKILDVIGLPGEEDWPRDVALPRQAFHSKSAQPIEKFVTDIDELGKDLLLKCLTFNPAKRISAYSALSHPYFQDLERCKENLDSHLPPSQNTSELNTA
Sequence of CDK6/cycD3 (P30281 whole entry partner, species assumed): as the sequence (P30281 whole entry partner, species assumed) above
Method: as §2

[8] = target: CDK2/CycA2 (Homo sapiens, UniProt P24941); assay: CDK2 kinase activity inhibition, Caliper mobility shift assay; type: biochemical
Method: as §2

Row | Structure (SMILES) | IC50 [1] | IC50 [2] | IC50 [3] | further results
1 | CN1CCC(N2CCN3c4ccc(Nc5ncc(C(N)=O)c(NC6CC6)n5)cc4OC[C@H]3C2)CC1 [Compound C2R] | < 50 nM | < 20 nM | < 500 nM | 
2 | CCc1nc(C(N)=O)c(Nc2ccc3c(c2)OC[C@H]2CN(CC(F)(F)F)CCN32)nc1NC1CCOCC1 [Compound D3R] |  |  |  | IC50 [5]: < 10 nM
3 | Cc1nc2c(F)cc(-c3nc(Nc4ccc5c(c4)OC[C@H]4CN(C6CCN(C)CC6)CCN54)ncc3F)cc2n1C(C)C [Compound B3R] |  |  |  | IC50 [6]: < 10 nM; IC50 [7]: < 10 nM; IC50 [8]: < 10 nM
4 | CCc1nc(C(N)=O)c(Nc2ccc3c(c2)OC[C@H]2CN(C4CC4)CCN32)nc1NC1CCOCC1 [Compound D4R] |  |  |  | IC50 [5]: < 1 nM
5 | CCS(=O)(=O)N1CCN2c3ccc(Nc4ncc(C(N)=O)c(NC5CC5)n4)cc3OC[C@H]2C1 [Compound C1R] | < 10 nM | < 10 nM | < 100 nM | 
6 | Cc1nc2c(F)cc(-c3nc(Nc4ccc5c(c4)OC[C@H]4CN(C)CCN54)ncc3F)cc2n1C(C)C [Compound B1R] |  |  |  | IC50 [6]: < 10 nM; IC50 [7]: < 50 nM; IC50 [8]: < 10 nM
7 | CCc1nc(C(N)=O)c(Nc2ccc3c(c2)OC[C@@H]2CN(C)CC(=O)N32)nc1NC1CCOCC1 [Compound D5S] |  |  |  | IC50 [5]: < 10 nM
8 | CCc1nc(C(N)=O)c(Nc2ccc3c(c2)OC[C@H]2COCCN32)nc1NC1CCOCC1 [Compound D2R] |  |  |  | IC50 [5]: < 10 nM
9 | Cc1nc2c(F)cc(-c3nc(Nc4ccc5c(c4)OC[C@@H]4CN(C)CCN54)ncc3F)cc2n1C(C)C [Compound B1S] |  |  |  | IC50 [6]: < 10 nM; IC50 [7]: < 50 nM; IC50 [8]: < 10 nM
10 | CC(=O)N1CCN2c3ccc(Nc4ncc(C(N)=O)c(NC5CC5)n4)cc3OC[C@H]2C1 [Compound C3R] | < 50 nM | < 10 nM | < 100 nM | 

The next lines start with results.

Row | IC50 [1] | IC50 [2] | IC50 [3] | Structure (SMILES) | further results
11 | < 50 nM | < 20 nM | < 500 nM | NC(=O)c1cnc(Nc2ccc3c(c2)OC[C@H]2CN(C4CCOCC4)CCN32)nc1NC1CC1 [Compound C4R] | 
12 | < 10 nM | < 10 nM |  | NC(=O)c1cnc(Nc2ccc3c(c2)OC[C@H]2CN(S(=O)(=O)C4CC4)CCN32)nc1NC1CC1 [Compound C10R] | Cmax [4]: 451 ng/mL; Tmax [4]: 0.5 h; half-life [4]: 2.41 h; AUC(0-t) ([4]; read-out: AUC(0-24)): 1240 ng·h/mL
13 | < 50 nM | < 10 nM | < 100 nM | CN1CCN2c3ccc(Nc4ncc(C(N)=O)c(NC5CC5)n4)cc3OC[C@H]2C1 [Compound C5R] | 
14 | < 50 nM | < 50 nM | < 500 nM | NC(=O)c1cnc(Nc2ccc3c(c2)OC[C@H]2CN(C(=O)C(F)(F)F)CCN32)nc1NC1CC1 [Compound C6R] | 
